In patent publication US20250154686A1, “COMPOUND LIBRARY” (CHUGAI SEIYAKU KABUSHIKI KAISHA, priority 2021, published 2025):

Biological target: T1, Bcl-2 protein (Recombinant Human Bcl-2 Protein) (Homo sapiens, UniProt P10415)
T1 construct: purchased Novus Biologicals NBP2-34889
Assay: AS-MS evaluation of binding of the Example 4 mixture library (1200 compounds/well) to Bcl-2, ASMS ratio (%)
Procedure, shortened: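 Affinity-selection MS: 1200 cpds/well, 20 nM each; hBcl-2 20 μM; 25 mM Tris pH 7.4/150 mM NaCl/0.025% Tween-20/1 mM DTT; 1 h, 23 °C, dark; P-2 size-exclusion spin, MeCN:MeOH 1:1 extraction; RP LC/MS; ratio vs no-protein STD and SEC blank.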

[1] = replicate n = 1, mixture library, value belongs to the MS peak assigned to the compound
[2] = replicate n = 2, mixture library, value belongs to the MS peak assigned to the compound
[3] = AS-MS, Example 4 mixture library, Bcl-2, replicate n = 1
[4] = AS-MS, Example 4 mixture library, Bcl-2, replicate n = 2
[5] = AS-MS, mixture of 1200 compounds/well, Bcl-2 protein, replicate n = 1
[6] = AS-MS, mixture of 1200 compounds/well, Bcl-2 protein, replicate n = 2

T1 sequence (P10415 whole entry): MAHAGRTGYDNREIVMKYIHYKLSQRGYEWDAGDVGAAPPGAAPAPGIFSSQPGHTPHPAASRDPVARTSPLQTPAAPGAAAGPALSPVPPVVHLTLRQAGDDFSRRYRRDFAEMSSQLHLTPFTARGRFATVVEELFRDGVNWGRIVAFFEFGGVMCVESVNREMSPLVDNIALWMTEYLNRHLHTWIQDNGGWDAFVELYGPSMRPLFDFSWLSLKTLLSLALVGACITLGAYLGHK

| ASMS ratio (%) n = 1 [3] [%] | ASMS ratio (%) n = 2 [4] [%] | Compound | further results |
| --- | --- | --- | --- |
|  |  | CCOc1cccc(-c2ccc(CN3CCN(c4ccc(C(=O)NS(C)(=O)=O)nn4)CC3)cc2C)c1 [Compound B2I073-01, 6-[4-[[4-(3-Ethoxyphenyl)-3-methylphenyl]methyl]piperazin-1-yl]-N-methylsulfonylpyridazine-3-carboxamide] | ASMS ratio (%) n = 1 [1]: 0.0%; ASMS ratio (%) n = 2 [2]: 0.0% |
| 0.0 | −0.7 | CCOc1cncc(-c2ccc(CN3CCN(c4ccc(C(=O)NS(=O)(=O)CCC(F)(F)F)cc4)CC3)cc2C)c1 [Compound B2N048-01, 4-[4-[[4-(5-Ethoxypyridin-3-yl)-3-methylphenyl]methyl]piperazin-1-yl]-N-(3,3,3-trifluoropropylsulfonyl)benzamide] |  |
|  |  | CCOc1cncc(-c2cc(C(=O)N3CCN(c4ccc(C(=O)NS(=O)(=O)c5ccc(NCCSc6ccccc6)c([N+](=O)[O-])c5)cc4)CC3)cc(C(F)(F)F)c2)c1 [Compound B2Q040-01, 4-[4-[3-(5-Ethoxypyridin-3-yl)-5-(trifluoromethyl)benzoyl]piperazin-1-yl]-N-[3-nitro-4-(2-phenylsulfanylethylamino)phenyl]sulfonylbenzamide] | ASMS ratio (%) n = 1 (Example 4 mixture library, 1200 compounds/well, Bcl-2 protein, replicate n = 1, value belongs to the MS peak assignable to the compound): 3.9%; ASMS ratio (%) n = 2 (Example 4 mixture library, 1200 compounds/well, Bcl-2 protein, replicate n = 2, value belongs to the MS peak assignable to the compound): 1.5% |
|  |  | CCOc1cccc(-c2ccc(CN3CCN(c4ccc(C(=O)NS(C)(=O)=O)cc4)CC3)c(CC)c2)c1 [Compound B2I049-01, 4-[4-[[4-(3-Ethoxyphenyl)-2-ethylphenyl]methyl]piperazin-1-yl]-N-methylsulfonylbenzamide] | ASMS ratio (%) n = 1 [1]: 0.0%; ASMS ratio (%) n = 2 [2]: 0.0% |
|  | 0.0 | CCOc1cccc(-c2cc(CN3CCN(c4ccc(C(=O)NS(=O)(=O)CCC(F)(F)F)nn4)CC3)cc(OC(F)(F)F)c2)c1 [Compound B2N089-01, 6-[4-[[3-(3-Ethoxyphenyl)-5-(trifluoromethoxy)phenyl]methyl]piperazin-1-yl]-N-(3,3,3-trifluoropropylsulfonyl)pyridazine-3-carboxamide] |  |
| 0.0 | 0.0 | CCOc1cccc(-c2ccc(CN3CCN(c4ccc(C(=O)NS(=O)(=O)CCC(F)(F)F)cc4)CC3)cc2C)c1 [Compound B2N047-01, 4-[4-[[4-(3-Ethoxyphenyl)-3-methylphenyl]methyl]piperazin-1-yl]-N-(3,3,3-trifluoropropylsulfonyl)benzamide] |  |
|  |  | CCCNC(=O)c1ccc(N2CCN(C(=O)c3ccc(-c4cccc(OCC)c4)c(C)c3)CC2)cc1 [Compound B1M025-01] | ASMS ratio (%) n = 1 [5]: 3.6%; ASMS ratio (%) n = 2 [6]: −1.2% |
| 18.8 | 11.9 | CCOc1cncc(-c2csc(CN3CCN(c4ccc(C(=O)NS(=O)(=O)c5ccc(NCCSc6ccccc6)c(C(F)(F)F)c5)nn4)CC3)c2)c1 [Compound B2R094-01, 6-[4-[[4-(5-Ethoxypyridin-3-yl)thiophen-2-yl]methyl]piperazin-1-yl]-N-[4-(2-phenylsulfanylethylamino)-3-(trifluoromethyl)phenyl]sulfonylpyridazine-3-carboxamide] |  |
|  |  | CCOc1cccc(-c2cnn(-c3cc(C(=O)N4CCN(c5ccc(C(=O)NS(C)(=O)=O)cc5)CC4)cc(C(F)(F)F)c3)c2)c1 [Compound B2I043-01, 4-[4-[3-[4-(3-Ethoxyphenyl)pyrazol-1-yl]-5-(trifluoromethyl)benzoyl]piperazin-1-yl]-N-methylsulfonylbenzamide] | ASMS ratio (%) n = 1 [1]: 0.0%; ASMS ratio (%) n = 2 [2]: 0.0% |
| −1.0 | −2.4 | CCOc1cccc(-c2ccc(C(=O)N3CCN(c4ccc(C(=O)NS(=O)(=O)c5ccc(NCCSc6ccccc6)c(C(F)(F)F)c5)cc4)CC3)cc2C)c1 [Compound B2R025-01, 4-[4-[4-(3-Ethoxyphenyl)-3-methylbenzoyl]piperazin-1-yl]-N-[4-(2-phenylsulfanylethylamino)-3-(trifluoromethyl)phenyl]sulfonylbenzamide] |  |
| 0.0 | 0.0 | CCOc1cccc(C#Cc2ccccc2CN2CCN(c3ccc(C(=O)NS(=O)(=O)CCC(F)(F)F)nn3)CC2)c1 [Compound B2N095-01] |  |
|  |  | CCOc1cncc(-c2ccc(C(=O)N3CCN(c4ccc(C(=O)NS(=O)(=O)C(C)(C)C)nn4)CC3)cc2F)c1 [Compound B2L006-01] | ASMS ratio (%) n = 1 [1]: 0.0%; ASMS ratio (%) n = 2 [2]: 0.0% |
| 0.0 | 0.0 | CCOc1cccc(-c2cc(CN3CCN(c4ccc(C(=O)NS(=O)(=O)CCC(F)(F)F)cc4)CC3)cc(OCC)c2)c1 [Compound B2N055-01] |  |
|  |  | CCCNC(=O)c1ccc(N2CCN(Cc3ccc(-c4cncc(OCC)c4)c(C)c3)CC2)nn1 [Compound B1M074-01] | ASMS ratio (%) n = 1 [5]: −1.6%; ASMS ratio (%) n = 2 [6]: 0.9% |
|  |  | CCOc1cncc(-c2cc(CN3CCN(c4ccc(C(=O)NS(=O)(=O)C(C)(C)C)cc4)CC3)cc(C(F)(F)F)c2)c1 [Compound B2L062-01, N-tert-Butylsulfonyl-4-[4-[[3-(5-ethoxypyridin-3-yl)-5-(trifluoromethyl)phenyl]methyl]piperazin-1-yl]benzamide] | ASMS ratio (%) n = 1 [1]: 0.0%; ASMS ratio (%) n = 2 [2]: 0.0% |
| 0.0 | 19.5 | CCOc1cncc(C#Cc2ccccc2C(=O)N2CCN(c3ccc(C(=O)NS(=O)(=O)c4ccc(NCCSc5ccccc5)c(C(F)(F)F)c4)nn3)CC2)c1 [Compound B2R008-01, 6-[4-[2-[2-(5-Ethoxypyridin-3-yl)ethynyl]benzoyl]piperazin-1-yl]-N-[4-(2-phenylsulfanylethylamino)-3-(trifluoromethyl)phenyl]sulfonylpyridazine-3-carboxamide] |  |
| 5.5 | 7.8 | CCOc1cncc(-c2ccc(CN3CCN(c4ccc(C(=O)NS(=O)(=O)C(C)(C)C)nn4)CC3)c3ccccc23)c1 [Compound B2L092-01, N-tert-Butylsulfonyl-6-[4-[[4-(5-ethoxypyridin-3-yl)naphthalen-1-yl]methyl]piperazin-1-yl]pyridazine-3-carboxamide] |  |
| 21.4 | 11.4 | CCOc1cncc(-c2ccccc2CN2CCN(c3ccc(C(=O)NS(=O)(=O)c4ccc(NCCSc5ccccc5)c(C(F)(F)F)c4)nn3)CC2)c1 [Compound B2R072-01] |  |
| 9.7 | 0.0 | CCOc1cccc(-c2cc(C(=O)N3CCN(c4ccc(C(=O)NS(=O)(=O)c5ccc(NCCSc6ccccc6)c(C(F)(F)F)c5)nn4)CC3)cc(C(C)(C)C)c2)c1 [Compound B2R015-01, 6-[4-[3-tert-Butyl-5-(3-ethoxyphenyl)benzoyl]piperazin-1-yl]-N-[4-(2-phenylsulfanylethylamino)-3-(trifluoromethyl)phenyl]sulfonylpyridazine-3-carboxamide] |  |
| 14.3 | −9.0 | CCOc1cccc(-c2ccccc2CN2CCN(c3ccc(C(=O)NS(=O)(=O)c4ccc(NCCSc5ccccc5)c(C(F)(F)F)c4)nn3)CC2)c1 [Compound B2R071-01] |  |
|  |  | CCOc1cncc(-c2cc(CN3CCN(c4ccc(C(=O)NS(C)(=O)=O)nn4)CC3)cc(OC(C)C)c2)c1 [Compound B2I084-01, 6-[4-[[3-(5-Ethoxypyridin-3-yl)-5-propan-2-yloxyphenyl]methyl]piperazin-1-yl]-N-methylsulfonylpyridazine-3-carboxamide] | ASMS ratio (%) n = 1 [1]: −0.9%; ASMS ratio (%) n = 2 [2]: −1.5% |
